Experimental data published in ChEMBL document CHEMBL1137749, “Antifungal unsaturated cyclic Mannich ketones and amino alcohols: study of mechanism of action” (2009).
In brackets after ≈: the same amount, converted by molar mass. Activity calls are given as the source filed them. No cut-off for these calls is given here.

Columns and labels:
[1] = system: Nakaseomyces glabratus; experiment: Antifungal activity against Candida glabrata ATCC 3916 after 48 hrs by macro tube dilution method; format: functional; details: ATCC 3916, 48 h
[2] = system: Saccharomyces cerevisiae; experiment: Antifungal activity against Saccharomyces cerevisiae after 48 hrs by macro tube dilution method; format: functional
[3] = system: Aspergillus sp.; experiment: Antifungal activity against Aspergillus sp. after 48 hrs by macro tube dilution method; format: functional
[4] = system: Candida albicans; experiment: Antifungal activity against Candida albicans ATCC 90028 assessed as increase in 124 kDa fungal protein at 0.5 time MIC after 1 hr by electrophoresis-based microchip technology; format: functional, organism-based
[5] = system: Candida albicans; experiment: Antifungal activity against Candida albicans ATCC 90028 assessed as increase in 124 kDa fungal protein at 2 times MIC after 1 hr by electrophoresis-based microchip technology; format: functional, organism-based
[6] = system: Candida albicans; experiment: Antifungal activity against Candida albicans ATCC 90028 assessed as increase in 104 kDa fungal protein at 2 times MIC after 1 hr by electrophoresis-based microchip technology; format: functional, organism-based
[7] = system: Candida albicans; experiment: Antifungal activity against Candida albicans ATCC 90028 assessed as increase in 104 kDa fungal protein at 0.5 time MIC after 1 hr by electrophoresis-based microchip technology; format: functional, organism-based
[8] = system: Candida albicans; experiment: Antifungal activity against Candida albicans ATCC 90028 after 48 hrs by macro tube dilution method; format: functional; details: ATCC 90028, 48 h
[9] = system: Candida parapsilosis; experiment: Antifungal activity against Candida parapsilosis ATCC 22019 after 48 hrs by macro tube dilution method; format: functional; details: Lodderomyces parapsilosis, ATCC 22019, 48 h
[10] = system: Candida albicans; experiment: Antifungal activity against Candida albicans ATCC 90028 assessed as increase in 147 kDa fungal protein at 0.5 time MIC after 1 hr by electrophoresis-based microchip technology; format: functional, organism-based
[11] = system: Candida albicans; experiment: Antifungal activity against Candida albicans ATCC 90028 assessed as increase in 147 kDa fungal protein at 2 times MIC after 1 hr by electrophoresis-based microchip technology; format: functional, organism-based
[12] = system: Pichia kudriavzevii; experiment: Antifungal activity against Candida krusei ATCC 30068 after 48 hrs by macro tube dilution method; format: functional; details: ATCC 30068, 48 h
[13] = system: Candida albicans; experiment: Antifungal activity against Candida albicans ATCC 90028 assessed as increase in 117 kDa fungal protein at 0.5 time MIC after 1 hr by electrophoresis-based microchip technology; format: functional, organism-based
[14] = system: Candida albicans; experiment: Antifungal activity against Candida albicans ATCC 90028 assessed as increase in 117 kDa fungal protein at 2 times MIC after 1 hr by electrophoresis-based microchip technology; format: functional, organism-based
[15] = system: Candida albicans; experiment: Antifungal activity against Candida albicans ATCC 90028 assessed as number of fungal cells without pseudohyphae out of 100 cells at 0.5 time MIC after 0 to 6 hrs by light microscopy; format: functional
[16] = system: Candida albicans; experiment: Antifungal activity against Candida albicans ATCC 90028 assessed as inhibition of fungal ergosterol synthesis at 0.5 times MIC after 16 hrs by UV spectrophotometry; format: functional, organism-based
[17] = system: Candida albicans; experiment: Antifungal activity against Candida albicans ATCC 90028 assessed as number of fungal cells with pseudohyphae out of 100 cells at 0.5 time MIC after 0 to 6 hrs by light microscopy; format: functional
[18] = species on record: Rattus norvegicus; experiment: Inhibition of lactate dehydrogenase in Wistar rat kidney at 1.5 times MIC relative to control
[19] = system: Candida albicans; experiment: Inhibition of chitin synthase in Candida albicans ATCC 90028 at 1.5 times MIC by liquid scintillation analyzer relative to nikkomycin
[20] = system: Candida albicans; experiment: Antifungal activity against Candida albicans ATCC 90028 assessed as inhibition of fungal ergosterol synthesis at 1.56 ug/mL after 16 hrs by UV spectrophotometry; format: functional, organism-based
[21] = system: Candida albicans; experiment: Antifungal activity against Candida albicans ATCC 90028 assessed as changes in fungal protein expression at 0.5 time MIC after 1 hr by electrophoresis-based microchip technology; format: functional, organism-based
[22] = system: Candida albicans; experiment: Antifungal activity against Candida albicans ATCC 90028 assessed as inhibition of fungal ergosterol synthesis at 25 ug/mL after 16 hrs by UV spectrophotometry; format: functional, organism-based
[23] = system: Candida albicans; experiment: Antifungal activity against Candida albicans ATCC 90028 assessed as changes in fungal protein expression at 2 times MIC after 1 hr by electrophoresis-based microchip technology; format: functional, organism-based

SMILES | MIC [1] | MIC [2] | MIC [3] | Activity [4] | Activity [5] | Activity [6] | Activity [7] | MIC [8] | MIC [9] | Activity [10] | Activity [11] | MIC [12] | Activity [13] | Activity [14] | Activity [15] | Activity [17] | also measured
COc1ccc(/C=C2\CC[C@@H](CN3CCCCC3)[C@@H]2O)cc1 (relative stereo) | > 200 µg/mL | 100 µg/mL (≈ 332 µM) | 200 µg/mL (≈ 664 µM) | Active | Active | inactive | Active | 100 µg/mL (≈ 332 µM) | > 200 µg/mL | inactive | inactive | 100 µg/mL (≈ 332 µM) | Active | Active | – | – | –
COc1ccccc1/C=C1\CCC(CN2CCOCC2)C1=O (stereo unspecified) | 12.5 µg/mL (≈ 41.5 µM) | 6.25 µg/mL (≈ 20.7 µM) | > 200 µg/mL | – | – | – | – | 3.12 µg/mL (≈ 10.4 µM) | 12.5 µg/mL (≈ 41.5 µM) | – | – | 3.12 µg/mL (≈ 10.4 µM) | – | – | 81 | 9 | Activity [16]: inactive
COc1cccc(/C=C2\CCC(CN3CCOCC3)C2=O)c1 (stereo unspecified) | 3.12 µg/mL (≈ 10.4 µM) | 1.56 µg/mL (≈ 5.18 µM) | 50 µg/mL (≈ 166 µM) | – | – | – | – | 3.12 µg/mL (≈ 10.4 µM) | 3.12 µg/mL (≈ 10.4 µM) | – | – | 3.12 µg/mL (≈ 10.4 µM) | – | – | – | – | Activity [18]: inactive; inhibition [19]: inactive; Activity [20]: inactive
C[C@@H]1[C@H](O)[C@@H](C)/C=C/C=C/C=C/C=C/C=C/C=C/C=C/[C@H](O[C@@H]2O[C@H](C)[C@@H](O)[C@H](N)[C@@H]2O)C[C@@H]2O[C@](O)(C[C@@H](O)C[C@@H](O)[C@H](O)CC[C@@H](O)C[C@@H](O)CC(=O)O[C@H]1C)C[C@H](O)[C@H]2C(=O)O [AMPHOTERICIN B] | – | – | – | – | – | – | – | – | – | – | – | – | – | – | 77 | 18 | –
O=C1/C(=C/c2ccccc2)CCCCC1CN1CCCCC1 (stereo unspecified) | 100 µg/mL (≈ 336 µM) | 100 µg/mL (≈ 336 µM) | 100 µg/mL (≈ 336 µM) | – | – | – | – | 50 µg/mL (≈ 168 µM) | 200 µg/mL (≈ 672 µM) | – | – | 100 µg/mL (≈ 336 µM) | – | – | 39 | 47 | Activity [21]: inactive; Activity [22]: inactive; inhibition [18]: inactive; inhibition [19]: 24%; Activity [23]: inactive
OC(Cn1cncn1)(Cn1cncn1)c1ccc(F)cc1F | – | – | – | – | – | – | – | – | – | – | – | – | – | – | – | – | Activity [20]: inactive
O=C1/C(=C/c2ccccc2)CCC1CN1CCc2ccccc2C1 (stereo unspecified) | 6.25 µg/mL (≈ 19.7 µM) | 1.56 µg/mL (≈ 4.91 µM) | 200 µg/mL (≈ 630 µM) | Active | Active | Active | Active | 12.5 µg/mL (≈ 39.4 µM) | 12.5 µg/mL (≈ 39.4 µM) | Active | Active | 12.5 µg/mL (≈ 39.4 µM) | Active | Active | – | – | –
COc1ccc(/C=C2\CCC(CN3CCCCC3)C2=O)cc1 (stereo unspecified) | 6.25 µg/mL (≈ 20.9 µM) | 3.12 µg/mL (≈ 10.4 µM) | 100 µg/mL (≈ 334 µM) | Active | Active | Active | Active | 12.5 µg/mL (≈ 41.7 µM) | 6.25 µg/mL (≈ 20.9 µM) | Active | Active | 12.5 µg/mL (≈ 41.7 µM) | Active | Active | – | – | –
